The text below walks through data of patent US20100120700A1, “METHODS AND COMPOSITIONS FOR TREATING CERVICAL CANCER” (priority 2000, published 2010).

Assay in all cases: G assay PDZ-PL binding
Common to all, as to conditions: peptide 10 uM, protein 5

For one assay, the target named is T1, FLJ11215 domain 1 (Homo sapiens, UniProt Q9NUP9).
T1 construct: made in house; host or cells: E. coli (DH5alpha, BL21 or JM109), vector pGEX-3X
Summed up:
(§1)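 Plate ELISA: anti-GST antibody coat, BSA block, then GST/PDZ fusion (GST alone as negative control). Biotinylated PL peptide 20 uM (10 uM in G′ variant) added, 10 min 4 °C plus 20 min 25 °C; streptavidin-HRP, TMB, absorbance 450 nm.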

The next assay concerns the target T2, INADL domain 3 (Homo sapiens, UniProt Q8NI35).
T2 construct: made in house; host or cells: E. coli (DH5alpha, BL21 or JM109)
Summed up: as §1

The next assay deals with T3, KIAA0147 domain 4 (Homo sapiens, UniProt Q14160).
T3 construct: made in house; host or cells: E. coli (DH5alpha, BL21 or JM109)
Summed up:
as §1

In another assay the target is T4, LIM-RIL domain 1 (Homo sapiens, UniProt P50479, A39S/DEL20-20).
T4 construct: made in house; host or cells: E. coli (DH5alpha or BL-21)
Summed up: as §1

The target in a further assay is T5, MAGI 1 domain 3 (Homo sapiens, UniProt Q96QZ7).
T5 construct: made in house; host or cells: E. coli (DH5alpha, BL21 or JM109)
Summed up:
as §1

A further assay has as its target T6, MUPP1 domain 10 (Homo sapiens, UniProt O75970).
T6 construct: made in house; host or cells: E. coli (DH5alpha or BL-21)
Summed up: as §1

The next assay has as its target T7, PAR3 #182.1 domain 3 (Homo sapiens, UniProt Q8TEW0).
T7 construct: made in house; host or cells: E. coli (DH5alpha or BL-21)
Summed up: as §1

The test system of the next assay is DLG-6 #333.1 domain 1. The arrangement: species or system human. The procedure: (§2) (1) A PDZ-domain polypeptide is bound to a surface, e.g. a protein binding surface. In a preferred embodiment, a GST/PDZ fusion protein containing one or more PDZ domains is bound to a polystyrene 96-well plate. […] In one embodiment, the GST/PDZ fusion protein is bound via an anti-GST antibody that is coated onto the 96-well plate. Adequate binding to the plate can be achieved when: • a. 100 uL per well of 5 ug/mL goat anti-GST polyclonal antibody (Pierce) in PBS is added to a polystyrene 96-well plate (e.g., Num Polysorb) at 4° C. for 12 hours. • b. The plate is blocked by addition of 200 uL per well of PBS/BSA for 2 hours at 4° C. • c. The plate is washed 3 times with PBS. • d. 50 uL per well of 5 ug/mL GST/PDZ fusion protein) or, as a negative control, GST polypeptide alone (i.e. not a fusion protein) in PBS/BSA is added to the plate for 2 hours at 4° C. • e. The plate is again washed 3 times with PBS. […]
(§3) (3) The binding of the biotinylated peptide to the GST/PDZ fusion protein surface can be detected using a variety of methods and detectors known to one of skill in the art. In one embodiment, 100 uL per well of 0.5 ug/mL streptavidin-horse radish peroxidase (HRP) conjugate dissolved in BSA/PBS is added and allowed to react for 20 minutes at 4° C. The plate is then washed 5 times with 50 mM Tris pH 8.0 containing 0.2% Tween 20, and developed by addition of 100 uL per well of HRP-substrate solution (TMB, Dako) for 20 minutes at room temperature (RT). The reaction of the HRP and its substrate is terminated by addition of 100 uL per well of 1M sulfuric acid, and the absorbance of each well of the plate is read at 450 nm.
(§4) (4) Specific binding of a PL peptide and a PDZ domain polypeptide is determined by comparing the signal from the well(s) in which the PL peptide and PDZ domain polypeptide are combined, with the background signal(s). The background signal is the signal found in the negative control(s). Typically a specific or selective reaction will be at least twice background signal, more typically more than 5 times background, and most typically 10 or more times the background signal. In addition, a statistically significant reaction will involve multiple measurements of the reaction with the signal and the background differing by at least two standard errors, more typically four standard errors, and most typically six or more standard errors. Correspondingly, a statistical test (e.g. a T-test) comparing repeated measurements of the signal with-repeated measurements of the background will result in a p-value<0.05, more typically a p-value<0.01, and most typically a p-value<0.001 or less. As noted, in an embodiment of the “G” assay, the signal from binding of a given PL peptide to immobilized (surface bound) GST polypeptide alone is one suitable negative control (sometimes referred to as “B 1”). Because all measurement are done in multiples (i.e. at least duplicate) the arithmetic mean (or, equivalently, average.) of several measurements is used in determining the binding, and the standard error of the mean is used in determining the probable error in the measurement of the binding. The standard error of the mean of N measurements equals the square root of the following: the sum of the squares of the difference between each measurement and the mean, divided by the product of (N) and (N−1). Thus, in one embodiment, specific binding of the PDZ protein to the platebound peptide is determined by comparing the mean signal (“mean S”) and standard error of the signal (“SE”) for a particular PL-PDZ combination with the mean B1.
(§5) For convenience, the assay conditions described in this section are referred to as the “G’ assay” and the “G” assay,” with the specific conditions described in the preceding section on G assays being referred to as the “G° assay.” The “G′ assay” is identical to the “G° assay” except at step (2) the peptide concentration is 10 uM instead of 20 uM. […]

The test system of another assay is FLJ00011 domain 1. The arrangement: species or system human. As to the method:
as §2, §3, §4, §5

The test system of a further assay is NSP #268.2 domain 1. Details: species or system human. The procedure:
as §2, §3, §4, §5

Several values for one entry are separate records, joined by “and”; a condition that tells them apart may be missing. Equal values may be shown once.

T3 sequence (Q14160 1099-1203): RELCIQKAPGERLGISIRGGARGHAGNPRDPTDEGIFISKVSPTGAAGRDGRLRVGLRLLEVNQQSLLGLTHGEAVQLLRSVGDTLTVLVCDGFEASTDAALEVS
T6 sequence (O75970 with tags, fused parts or gaps): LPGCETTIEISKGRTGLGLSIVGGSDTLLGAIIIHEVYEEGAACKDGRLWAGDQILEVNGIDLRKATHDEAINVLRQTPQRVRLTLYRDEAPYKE
T1 sequence (Q9NUP9 86-182): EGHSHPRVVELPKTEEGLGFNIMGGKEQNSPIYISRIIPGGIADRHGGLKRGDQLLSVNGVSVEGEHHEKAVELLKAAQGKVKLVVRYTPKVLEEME
Chain of FLJ00011 domain 1 (as listed by the source): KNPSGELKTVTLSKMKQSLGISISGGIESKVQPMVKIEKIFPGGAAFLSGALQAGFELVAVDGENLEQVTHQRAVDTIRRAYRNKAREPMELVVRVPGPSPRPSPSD
T4 sequence (P50479 with tags, fused parts or gaps DEL20-20/A39S): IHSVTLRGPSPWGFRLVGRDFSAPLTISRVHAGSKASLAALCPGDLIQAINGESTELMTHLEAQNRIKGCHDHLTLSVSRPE
T2 sequence (Q8NI35 with tags, fused parts or gaps): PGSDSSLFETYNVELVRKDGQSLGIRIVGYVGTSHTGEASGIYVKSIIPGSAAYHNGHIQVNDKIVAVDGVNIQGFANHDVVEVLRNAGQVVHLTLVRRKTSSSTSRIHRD
T5 sequence (Q96QZ7 with tags, fused parts or gaps): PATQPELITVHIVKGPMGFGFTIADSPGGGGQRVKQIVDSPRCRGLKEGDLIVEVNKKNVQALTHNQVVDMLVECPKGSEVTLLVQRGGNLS
T7 sequence (Q8TEW0 579-681): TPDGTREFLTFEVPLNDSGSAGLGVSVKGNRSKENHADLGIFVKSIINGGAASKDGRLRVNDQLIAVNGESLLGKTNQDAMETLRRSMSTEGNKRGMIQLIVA

For the substance “20 mer peptide corresponding to the C-terminus of HPV16 E6 (PDZ ligand), biotinylated in binding assays; ends SSRTRRETQL (SEQ ID NO: 13) [HPV E6 #16]”, the “Ave OD” value was 0.449 and 0.666 at FLJ11215 domain 1 (A450 nm); 0.485 on INADL domain 3 (A450 nm); 0.464 and 0.3795 on KIAA0147 domain 4 (A450 nm); 0.449 at LIM-RIL domain 1 (A450 nm); 0.354 at MAGI 1 domain 3 (A450 nm); 0.3925 and 0.3915 at MUPP1 domain 10 (A450 nm). For the same substance, the “Ave OD” value on PAR3 #182.1 domain 3 (A450 nm) was 0.445; with DLG-6 #333.1 domain 1 (A450 nm), 0.3495; in the assay on FLJ00011 domain 1 (A450 nm) it was 0.423 and 0.8185; in the assay on NSP #268.2 domain 1 (A450 nm), 0.724. In addition, the “OD S/N” value on FLJ11215 domain 1 (vs GST only well) is 2.77 and 2.74; at INADL domain 3 (vs GST only well), 1.86; on KIAA0147 domain 4 (vs GST only well), 2.17 and 2.34; on LIM-RIL domain 1 (vs GST only well) it was 1.60; on MAGI 1 domain 3 (vs GST only well), 1.46; at MUPP1 domain 10 (vs GST only well), 2.03 and 1.96. Further, the “OD S/N” value was 2.07 on PAR3 #182.1 domain 3 (vs GST only well); 2.04 with DLG-6 #333.1 domain 1 (vs GST only well); 2.90 and 3.97 in the assay on FLJ00011 domain 1 (vs GST only well); 2.58 with NSP #268.2 domain 1 (vs GST only well).
